In patent publication US20230233569A1 (Revolution Medicines, Inc., priority 2020, published 2023):

Columns and labels:
Capan-1 (K-Ras G12V) = assay: CellTiter-Glo cell viability assay, 5-day treatment; type: cell-based; details: Homo sapiens, CAPAN-1, 120 h, 5-day treatment; read-out: Capan-1 Cell Viability assay data (K-Ras G12V, IC50)
Procedure, shortened: (§1)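 Five-day compound treatment of plated cells; luminescent read after ~30 min at RT. Percent-of-DMSO data fit to a four-parameter logistic model.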

NCI-H358 (K-Ras G12C) = assay: as above; type: cell-based; details: Homo sapiens, NCI-H358, 120 h, 5-day treatment; read-out: H358 Cell Viability assay data (K-Ras G12C, IC50)
Procedure, shortened: as §1

KRAS G12C = KRAS G12C (Homo sapiens, UniProt P01116+P62937, G12C); assay: Disruption of BRAF RBD interaction with Ras (FRET / MOA assay, with Cyclophilin A); type: biochemical; details: read-out: KRAS G12C FRET data, IC50
KRAS G12C, sequence (P01116 1-169 isoform P01116-2 G12C): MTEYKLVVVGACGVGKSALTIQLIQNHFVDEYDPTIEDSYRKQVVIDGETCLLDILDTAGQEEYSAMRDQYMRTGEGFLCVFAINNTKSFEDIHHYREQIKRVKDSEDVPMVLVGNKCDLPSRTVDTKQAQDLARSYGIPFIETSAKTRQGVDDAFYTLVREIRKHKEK
KRAS G12C, sequence (P62937 whole entry): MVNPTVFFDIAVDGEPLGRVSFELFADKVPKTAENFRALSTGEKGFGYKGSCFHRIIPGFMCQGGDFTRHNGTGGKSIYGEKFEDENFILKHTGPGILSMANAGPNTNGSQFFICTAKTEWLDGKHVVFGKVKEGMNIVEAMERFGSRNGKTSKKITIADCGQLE
Procedure, shortened: (§2)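 TR-FRET readout: a drop in ratio relative to DMSO wells marks disruption of the K-Ras:BRAF RBD complex via compound-induced K-Ras–Cyclophilin A ternary complex. Dosing used ten 3-fold steps from 30 μM final, 3 h at 25 °C, then Eu-anti-His 10 nM plus APC-anti-GST 50 nM for another 1.5 h. Values are IC50s.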

KRAS G12D = KRAS G12D (Homo sapiens, UniProt P01116+P62937, G12D); assay: as above; type: biochemical; details: read-out: KRAS G12D FRET data, IC50
KRAS G12D, sequence (P01116 1-169 isoform P01116-2 G12D limits assumed): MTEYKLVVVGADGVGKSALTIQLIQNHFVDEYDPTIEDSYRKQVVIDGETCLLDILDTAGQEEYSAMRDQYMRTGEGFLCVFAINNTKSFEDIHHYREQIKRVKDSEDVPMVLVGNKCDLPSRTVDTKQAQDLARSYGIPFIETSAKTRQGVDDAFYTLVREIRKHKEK
KRAS G12D, sequence (P62937 whole entry): as the sequence (P62937 whole entry) above
Procedure, shortened: as §2

KRAS G12S = KRAS G12S (Homo sapiens, UniProt P01116+P62937, G12S); assay: as above; type: biochemical; details: read-out: KRAS G12S FRET data, IC50
KRAS G12S, sequence (P01116 1-169 isoform P01116-2 G12S limits assumed): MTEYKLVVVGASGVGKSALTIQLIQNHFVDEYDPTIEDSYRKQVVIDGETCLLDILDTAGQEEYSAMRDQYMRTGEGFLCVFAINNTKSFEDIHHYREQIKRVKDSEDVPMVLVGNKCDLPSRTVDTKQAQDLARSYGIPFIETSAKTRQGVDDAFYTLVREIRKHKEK
KRAS G12S, sequence (P62937 whole entry): as the sequence (P62937 whole entry) above
Procedure, shortened: as §2

KRAS G12V = KRAS G12V (Homo sapiens, UniProt P01116+P62937, G12V); assay: as above; type: biochemical; details: KRAS G12V; read-out: KRAS G12V FRET data IC50
KRAS G12V, sequence (P01116 1-169 isoform P01116-2 G12V limits assumed): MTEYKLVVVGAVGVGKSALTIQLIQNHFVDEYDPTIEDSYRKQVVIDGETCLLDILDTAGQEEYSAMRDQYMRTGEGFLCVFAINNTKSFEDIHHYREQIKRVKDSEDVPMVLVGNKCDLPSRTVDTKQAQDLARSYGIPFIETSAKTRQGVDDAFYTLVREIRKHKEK
KRAS G12V, sequence (P62937 whole entry): as the sequence (P62937 whole entry) above
Procedure, shortened: as §2

KRAS G13C = KRAS G13C (Homo sapiens, UniProt P01116+P62937, G13C); assay: as above; type: biochemical; details: read-out: KRAS G13C FRET data, IC50
KRAS G13C, sequence (P01116 1-169 isoform P01116-2 G13C): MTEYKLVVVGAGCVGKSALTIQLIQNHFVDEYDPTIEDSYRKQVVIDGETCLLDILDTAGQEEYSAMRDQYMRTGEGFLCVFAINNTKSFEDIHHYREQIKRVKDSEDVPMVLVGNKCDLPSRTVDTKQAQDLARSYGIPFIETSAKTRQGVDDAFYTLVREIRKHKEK
KRAS G13C, sequence (P62937 whole entry): as the sequence (P62937 whole entry) above
Procedure, shortened: as §2

KRAS G13D = KRAS G13D (Homo sapiens, UniProt P01116+P62937, G13D); assay: as above; type: biochemical; details: KRAS G13D; read-out: KRAS G13D FRET data IC50
KRAS G13D, sequence (P01116 1-169 isoform P01116-2 G13D limits assumed): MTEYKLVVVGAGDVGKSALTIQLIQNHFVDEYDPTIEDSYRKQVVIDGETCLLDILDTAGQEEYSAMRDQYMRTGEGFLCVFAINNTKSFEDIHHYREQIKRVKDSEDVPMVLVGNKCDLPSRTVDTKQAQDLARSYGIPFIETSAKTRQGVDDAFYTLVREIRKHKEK
KRAS G13D, sequence (P62937 whole entry): as the sequence (P62937 whole entry) above
Procedure, shortened: as §2

KRAS WT = KRAS WT (Homo sapiens, UniProt P01116+P62937); assay: as above; type: biochemical; details: KRAS WT; read-out: KRAS WT FRET data IC50
KRAS WT, sequence (P01116 1-169 isoform P01116-2 limits assumed): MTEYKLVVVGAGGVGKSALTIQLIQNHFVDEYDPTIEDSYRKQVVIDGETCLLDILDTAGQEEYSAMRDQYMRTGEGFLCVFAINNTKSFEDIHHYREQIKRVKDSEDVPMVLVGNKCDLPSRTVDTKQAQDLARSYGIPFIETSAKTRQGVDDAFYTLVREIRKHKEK
KRAS WT, sequence (P62937 whole entry): as the sequence (P62937 whole entry) above
Procedure, shortened: as §2

NRAS G12C = NRAS G12C (Homo sapiens, UniProt P01111+P62937, G12C); assay: as above; type: biochemical; details: NRAS G12C; read-out: NRAS G12C FRET data IC50
NRAS G12C, sequence (P01111 whole entry G12C): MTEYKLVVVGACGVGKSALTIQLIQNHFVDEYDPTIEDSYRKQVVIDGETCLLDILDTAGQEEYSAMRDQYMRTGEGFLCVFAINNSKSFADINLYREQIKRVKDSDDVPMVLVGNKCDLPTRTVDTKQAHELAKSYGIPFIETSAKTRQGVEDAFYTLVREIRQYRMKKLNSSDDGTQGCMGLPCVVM
NRAS G12C, sequence (P62937 whole entry): as the sequence (P62937 whole entry) above

KRAS Q61H = KRAS Q61H (Homo sapiens, UniProt P01116+P62937, Q61H); assay: as above; type: biochemical; details: KRAS Q61H; read-out: KRAS Q61H FRET data IC50
KRAS Q61H, sequence (P01116 1-169 isoform P01116-2 Q61H limits assumed): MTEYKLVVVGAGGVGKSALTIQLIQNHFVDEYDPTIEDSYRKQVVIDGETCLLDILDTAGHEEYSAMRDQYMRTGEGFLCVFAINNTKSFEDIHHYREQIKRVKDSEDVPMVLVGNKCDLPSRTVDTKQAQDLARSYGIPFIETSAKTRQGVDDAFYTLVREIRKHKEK
KRAS Q61H, sequence (P62937 whole entry): as the sequence (P62937 whole entry) above
Procedure, shortened: (§3)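 IC50 reflects compound-driven Ras:Cyclophilin A ternary complex displacing BRAF RBD, read as lowered TR-FRET ratio relative to DMSO after Eu anti-His (10 nM) and APC anti-GST (50 nM) detection for 1.5 h. Prior incubation 3 h, 25° C, with 12.5 nM GMPPNP-loaded Ras, 50 nM BRAF RBD, 25 μM Cyclophilin A; top compound 30 μM.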

NRAS Q61K = NRAS Q61K (Homo sapiens, UniProt P01111+P62937, Q61K); assay: as above; type: biochemical; details: NRAS Q61K; read-out: NRAS Q61K FRET data IC50
NRAS Q61K, sequence (P01111 whole entry Q61K): as the sequence (P01111 whole entry G12C) above, with C12G, Q61K counted along it
NRAS Q61K, sequence (P62937 whole entry): as the sequence (P62937 whole entry) above
Procedure, shortened: as §3

NRAS Q61R = NRAS Q61R (Homo sapiens, UniProt P01111+P62937, Q61R); assay: as above; type: biochemical; details: NRAS Q61R; read-out: NRAS Q61R FRET data IC50
NRAS Q61R, sequence (P01111 whole entry Q61R): as the sequence (P01111 whole entry G12C) above, with C12G, Q61R counted along it
NRAS Q61R, sequence (P62937 whole entry): as the sequence (P62937 whole entry) above
Procedure, shortened: as §3

NRAS WT = NRAS WT (Homo sapiens, UniProt P01111+P62937); assay: as above; type: biochemical; details: NRAS WT; read-out: NRAS WT FRET data IC50
NRAS WT, sequence (P01111 whole entry): as the sequence (P01111 whole entry G12C) above, with C12G counted along it
NRAS WT, sequence (P62937 whole entry): as the sequence (P62937 whole entry) above
Procedure, shortened: as §3

Row | SMILES | IC50 (Capan-1 (K-Ras G12V)) [nM] | IC50 (NCI-H358 (K-Ras G12C)) [nM] | IC50 (KRAS G12C) [nM] | IC50 (KRAS G12D) [nM] | IC50 (KRAS G12S) [nM] | IC50 (KRAS G12V) [nM] | IC50 (KRAS G13C) [nM] | IC50 (KRAS G13D) [nM] | IC50 (KRAS WT) [nM] | IC50 (NRAS G12C) [nM] | IC50 (KRAS Q61H) [nM] | IC50 (NRAS Q61K) [nM] | IC50 (NRAS Q61R) [nM] | IC50 (NRAS WT) [nM]
1 | CCn1c(-c2cccnc2[C@H](C)OC)c2c3cc(ccc31)-c1csc(n1)C[C@H](NC(=O)[C@H](C(C)C)N(C)C(=O)N1CC([C@@H](C)N(C)C)C1)C(=O)N1CCC[C@H](N1)C(=O)OCC(C)(C)C2 (atropisomer, axis not shown) [Example A458] | 10 to 100 | 10 to 100 | 10 to 100 | 100 to 1000 | 100 to 1000 | 100 to 1000 | 100 to 1000 | 100 to 1000 | 100 to 1000 | 10 to 100 | 100 to 1000 | 10 to 100 | 100 to 1000 | 100 to 1000
2 | CCn1c(-c2cccnc2[C@H](C)OC)c2c3cc(ccc31)-c1csc(n1)C[C@H](NC(=O)[C@H](C(C)C)N(C)C(=O)N1CC3(CC(N(C)CCO)C3)C1)C(=O)N1CCC[C@H](N1)C(=O)OCC(C)(C)C2 (atropisomer, axis not shown) [Example A467] | 10 to 100 | 10 to 100 | 10 to 100 | 100 to 1000 | 100 to 1000 | 100 to 1000 | 100 to 1000 | 100 to 1000 | 100 to 1000 | 10 to 100 | 10 to 100 | 10 to 100 | 100 to 1000 | 100 to 1000
3 | CCn1c(-c2cccnc2[C@H](C)OC)c2c3cc(ccc31)-c1csc(n1)C[C@H](NC(=O)[C@H](C(C)C)N(C)C(=O)N1CC[C@H]3CN(C)C[C@H]31)C(=O)N1CCC[C@H](N1)C(=O)OCC(C)(C)C2 (atropisomer, axis not shown) [Example A471] | 100 to 1000 | 100 to 1000 | 10 to 100 | 100 to 1000 | 100 to 1000 | 100 to 1000 | 100 to 1000 | 100 to 1000 | 100 to 1000 | 10 to 100 | 10 to 100 | 10 to 100 | 100 to 1000 | 10 to 100
4 | CCn1c(-c2cc(N3CCN(C)CC3)cnc2[C@H](C)OC)c2c3cc(ccc31)-c1csc(n1)C[C@H](NC(=O)[C@H](C(C)C)N(C)C(=O)N1C[C@@H](C)N(C)C[C@H]1C)C(=O)N1CCC[C@H](N1)C(=O)OCC(C)(C)C2 (atropisomer, axis not shown) [Example A476] | < 10 | < 10 | 100 to 1000 | 100 to 1000 | 100 to 1000 | 100 to 1000 | 100 to 1000 | 100 to 1000 | 100 to 1000 | 10 to 100 | 100 to 1000 | 100 to 1000 | 100 to 1000 | 100 to 1000
5 | CCn1c(-c2cc(N3CCN(C)CC3)cnc2[C@H](C)OC)c2c3cc(ccc31)-c1csc(n1)C[C@H](NC(=O)[C@H](C(C)C)N(C)C(=O)N1CC(N(C)C)C1)C(=O)N1CCC[C@H](N1)C(=O)OCC(C)(C)C2 (atropisomer, axis not shown) [Example A477] | < 10 | < 10 | 10 to 100 | 100 to 1000 | 100 to 1000 | 10 to 100 | 100 to 1000 | 100 to 1000 | 100 to 1000 | 10 to 100 | 10 to 100 | 10 to 100 | 10 to 100 | 10 to 100
6 | CCn1c(-c2cccnc2[C@H](C)OC)c2c3cc(ccc31)-c1csc(n1)C[C@H](NC(=O)[C@H](C(C)C)N(C)C(=O)N1CC([C@H](C)CO)C1)C(=O)N1CCC[C@H](N1)C(=O)OCC(C)(C)C2 (atropisomer, axis not shown) [Example A478] | 10 to 100 | < 10 | 10 to 100 | 100 to 1000 | 100 to 1000 | 100 to 1000 | 100 to 1000 | 100 to 1000 | 100 to 1000 | 10 to 100 | 10 to 100 | 10 to 100 | 100 to 1000 | 10 to 100
7 | CCn1c(-c2cc(N3CCN(C)CC3)cnc2[C@H](C)OC)c2c3cc(ccc31)-c1csc(n1)C[C@H](NC(=O)[C@H](C(C)C)N(C)C(=O)N1CCC13CCN(C)CC3)C(=O)N1CCC[C@H](N1)C(=O)OCC(C)(C)C2 (atropisomer, axis not shown) [Example A483] | 10 to 100 | < 10 | 10 to 100 | 10 to 100 | 10 to 100 | 100 to 1000 | 100 to 1000 | 100 to 1000 | 10 to 100 | 10 to 100 | 10 to 100 | 10 to 100 | 10 to 100 | 10 to 100
8 | CCn1c(-c2cc(C3CCN(C)CC3)cnc2[C@H](C)OC)c2c3cc(ccc31)-c1csc(n1)C[C@H](NC(=O)[C@H](C(C)C)N(C)C(=O)N(C)C)C(=O)N1CCC[C@H](N1)C(=O)OCC(C)(C)C2 (atropisomer, axis not shown) [Example A484] | < 10 | < 10 | 10 to 100 | 100 to 1000 | 100 to 1000 | 100 to 1000 | 100 to 1000 | 100 to 1000 | 100 to 1000 | 10 to 100 | 10 to 100 | 10 to 100 | 100 to 1000 | 10 to 100
9 | CCn1c(-c2cccnc2[C@H](C)OC)c2c3cc(ccc31)-c1csc(n1)C[C@H](NC(=O)[C@H](C(C)C)N(C)C(=O)N1CC3(CC(N4CCOCC4)C3)C1)C(=O)N1CCC[C@H](N1)C(=O)OCC(C)(C)C2 (atropisomer, axis not shown) [Example A486] | 10 to 100 | 10 to 100 | 100 to 1000 | 1000 to 10000 | 100 to 1000 | 100 to 1000 | 100 to 1000 | 100 to 1000 | 100 to 1000 | 100 to 1000 | 100 to 1000 | 10 to 100 | 100 to 1000 | 100 to 1000
